These results are taken from patent publication US20260274853A1, “BIFUNCTIONAL COMPOUNDS CONTAINING PYRIMIDINE DERIVATIVES FOR DEGRADING CYCLIN-DEPENDENT KINASE 2 VIA UBIQUITIN PROTEASOME PATHWAY” (NIKANG THERAPEUTICS, INC., priority 2022, published 2026).

Bounds are passed on as bounds.

Test [1] addresses T1, CDK2 (Homo sapiens, UniProt P24941).
T1 construct: High-Throughput Measurement of Cellular Endogenous CDK2; endogenous in cells; host or cells: OVCAR3
Briefly: Inhibition of CDK2: phospho-Rb (S807/811) HTRF measurement in OVCAR3 cells. Type of test: cell-based. The following applies: 24 h compound treatment, read-out: pRb (nM), IC50 in pRB(S807/811) assay.

The target in test [2] is T1, CDK2. Briefly: CDK2 HTRF assay: cellular endogenous CDK2 level in OVCAR3 cells. The class given is cell-based. The following applies: 24 hours compound treatment, read-out: DC50 (half maximal degradation concentration of CDK2). The procedure, abridged: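 Endogenous CDK2 degradation in OVCAR3 cells after 24 h compound treatment at 0.3–10,000 nM. Lysates assayed with an HTRF total-CDK2 two-antibody kit, TR-FRET 665/620 ratio normalized to DMSO. DC50 from four-parameter logistic fit, reported as potency bins.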

On to `Cc1ncsc1-c1ccc([C@H](C)NC(=O)[C@@H]2C[C@@H](O)CN2C(=O)[C@@H](NC(=O)CC2CCN(Cc3cccc(S(=O)(=O)N4CCC(Nc5ncc(C(F)(F)F)c(-c6cnn(CC(F)(F)F)c6)n5)CC4)c3)CC2)C(C)(C)C)cc1` [Example 62, (2S,4R)-1-((S)-3,3-dimethyl-2-(2-(1-(3-((4-((4-(1-(2,2,2-trifluoroethyl)-1H-pyrazol-4-yl)-5-(trifluoromethyl)-pyrimidin-2-yl)amino)piperidin-1-yl)-sulfonyl)benzyl)piperidin-4-yl)-acetamido)butanoyl)-4-hydroxy-N-((S)-1-(4-(4-methylthiazol-5-yl)phenyl)-ethyl)pyrrolidine-2-carboxamide], for which, in test [1], the IC50 was under 100 nM. The DC50 in test [2] was under 100 nM.
With `Cn1nc(N2CCC(=O)NC2=O)c2ccc(N3CC4CC(C3)N4Cc3cccc(S(=O)(=O)N4CC[C@H](Nc5ncc(C(F)(F)F)c(-c6cnn(CC(F)(F)F)c6)n5)[C@H](F)C4)c3)cc21` [Example 82, 1-(6-(6-(3-(((3R,4S)-3-fluoro-4-((4-(1-(2,2,2-trifluoroethyl)-1H-pyrazol-4-yl)-5-(trifluoromethyl)pyrimidin-2-yl)amino)-piperidin-1-yl)sulfonyl)-benzyl)-3,6-diazabicyclo[3.1.1]heptan-3-yl)-1-methyl-1H-indazol-3-yl)dihydro-pyrimidine-2,4(1H,3H)-dione], in test [1], the IC50 is under 100 nM. For the same compound, the DC50 in test [2] was under 100 nM.
Regarding `O=C1CCN(c2ccc(N3CCN(Cc4cccc(S(=O)(=O)N5CCC(Nc6ncc(C(F)(F)F)c(-c7cnn(CC(F)(F)F)c7)n6)CC5)c4)CC3)cc2)C(=O)N1` [Example 25, 1-(4-(4-(3-((4-((4-(1-(2,2,2-trifluoro-ethyl)-1H-pyrazol-4-yl)-5-(trifluoro-methyl)pyrimidin-2-yl)amino)-piperidin-1-yl)sulfonyl)benzyl)piperazin-1-yl)-phenyl)dihydro-pyrimidine-2,4(1H,3H)-dione], the IC50 in test [1] is under 100 nM. Besides, the DC50 in test [2] was under 100 nM.
For the compound `Cc1ncsc1-c1ccc([C@H](C)NC(=O)[C@@H]2C[C@@H](O)CN2C(=O)[C@@H](NC(=O)C2(F)CC2)C(C)(C)SCC2CCN(Cc3cccc(S(=O)(=O)N4CCC(Nc5ncc(C(F)(F)F)c(-c6cnn(CC(F)(F)F)c6)n5)CC4)c3)CC2)cc1` [Example 77, (2S,4R)-1-((R)-2-(1-fluorocyclopropane-1-carboxamido)-3-methyl-3-(((1-(3-((4-((4-(1-(2,2,2-trifluoroethyl)-1H-pyrazol-4-yl)-5-(trifluoromethyl)pyrimidin-2-yl)-amino)piperidin-1-yl)sulfonyl)-benzyl)-piperidin-4-yl)methyl)thio)-butanoyl)-4-hydroxy-N-((S)-1-(4-(4-methylthiazol-5-yl)phenyl)ethyl)-pyrrolidine-2-carboxamide], in test [1], the IC50 was under 100 nM. Further, the DC50 in test [2] is under 100 nM.
As to `O=C1CCC(Nc2ccc(C3CCN(Cc4cccc(S(=O)(=O)N5CCC(Nc6ncc(C(F)(F)F)c(-c7cnn(CC(F)(F)F)c7)n6)CC5)c4)CC3)cc2)C(=O)N1` (stereo not shown) [Example 11, 3-((4-(1-(3-((4-((4-(1-(2,2,2-trifluoro-ethyl)-1H-pyrazol-4-yl)-5-(trifluoro-methyl)pyrimidin-2-yl)amino)-piperidin-1-yl)sulfonyl)benzyl)piperidin-4-yl)-phenyl)amino)-piperidine-2,6-dione], in test [1], the IC50 is under 100 nM. In addition, the DC50 in test [2] is under 100 nM.
